# Data: patent publication US11452717B2, “Small molecule activators of nicotinamide phosphoribosyltransferase (NAMPT) and uses thereof” (Sanford Burnham Prebys Medical Discovery Institute, priority 2017, dated 2022)
# Target: NAMPT enzyme (Homo sapiens (Human), UniProt P43490)
# Assay: Enzyme Assay and NMN Detection (NAMPT reaction, fluorescence detection of NMN)
# Type: biochemical
# Details: Table B-1; NAMPT activation, NMN formation
# Summary of the method: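 NMN formed was read at ex380/em460 after acetophenone/KOH derivatization and formic acid addition, using a same-day calibration curve. Final conditions: NAMPT 16 nM, nicotinamide 5 uM, PRPP 6.25 uM, ATP 120 uM, pyrophosphatase 0.04 U/ml, pH 7.5 HEPES buffer with MgCl2 and TCEP, 2 h at room temperature.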
# NAMPT enzyme, sequence (P43490 whole entry, species assumed): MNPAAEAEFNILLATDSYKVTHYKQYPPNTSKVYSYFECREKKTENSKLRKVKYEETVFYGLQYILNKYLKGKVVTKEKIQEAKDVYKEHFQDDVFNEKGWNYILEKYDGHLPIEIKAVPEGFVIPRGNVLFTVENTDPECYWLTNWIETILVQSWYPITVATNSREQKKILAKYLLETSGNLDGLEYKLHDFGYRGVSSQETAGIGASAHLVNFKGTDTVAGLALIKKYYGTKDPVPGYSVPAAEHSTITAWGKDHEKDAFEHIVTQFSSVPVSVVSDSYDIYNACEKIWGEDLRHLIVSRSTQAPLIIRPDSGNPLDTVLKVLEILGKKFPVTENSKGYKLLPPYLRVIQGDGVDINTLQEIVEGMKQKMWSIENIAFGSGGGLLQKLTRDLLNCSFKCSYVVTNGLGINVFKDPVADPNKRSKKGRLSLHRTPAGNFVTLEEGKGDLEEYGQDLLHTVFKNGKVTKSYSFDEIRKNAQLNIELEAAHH
row,SMILES,EC50 [nM]
1,O=C(NCc1cn[nH]c1)Nc1ccc(C(=O)Nc2cccc(Cl)c2)cc1 [N-(3-Chloro-phenyl)-4-[3-(1H-pyrazol-4-ylmethyl)-ureido]-benzamide],100 to 2000
2,COc1cccc(CNS(=O)(=O)c2ccc(NC(=O)NCc3cn[nH]c3)cc2)c1 [N-(3-Methoxy-benzyl)-4-[3-(1H-pyrazol-4-ylmethyl)-ureido]-benzenesulfonamide],100 to 2000
3,O=C(NCc1cn[nH]c1)Nc1ccc(NS(=O)(=O)Cc2ccccc2)cc1 [N-(4-(3-((1H-pyrazol-4-yl)methyl)ureido)phenyl)-1-phenylmethanesulfonamide],< 100
4,O=C(NCc1cn[nH]c1)Nc1ccc(S(=O)(=O)NCc2ccc(Cl)cc2)cc1 [N-(4-Chloro-benzyl)-4-[3-(1H-pyrazol-4-ylmethyl)-ureido]-benzenesulfonamide],100 to 2000
5,COc1ccc(CNS(=O)(=O)c2ccc(NC(=O)NCc3cn[nH]c3)cc2)cc1 [N-(4-Methoxy-benzyl)-4-[3-(1H-pyrazol-4-ylmethyl)-ureido]-benzenesulfonamide],< 100

# Same assay, conditions: Table B-2; NAMPT activation, NMN formation
row,EC50 [nM],SMILES
1,100 to 2000,COc1ccccc1CNS(=O)(=O)c1ccc(NC(=O)NCc2ccncc2)cc1 [N-(2-methoxybenzyl)-4-(3-(pyridin-4-ylmethyl)ureido)benzenesulfonamide]
2,100 to 2000,Cc1ccccc1CNC(=O)c1ccc(NC(=O)NCc2ccncc2)cc1 [N-(2-methylbenzyl)-4-(3-(pyridin-4-ylmethyl)ureido)benzamide]
3,100 to 2000,O=C(NCc1ccncc1)Nc1ccc(C(=O)NCCN2CCOCC2)cc1 [N-(2-morpholinoethyl)-4-(3-(pyridin-4-ylmethyl)ureido)benzamide]
4,100 to 2000,"COc1ccc(NC(=O)c2ccc(NC(=O)NCc3ccncc3)cc2)cc1OC [N-(3,4-dimethoxyphenyl)-4-(3-(pyridin-4-ylmethyl)ureido)benzamide]"
5,100 to 2000,"Cc1ccc(NC(=O)c2ccc(NC(=O)NCc3ccncc3)cc2)cc1C [N-(3,4-dimethylphenyl)-4-(3-(pyridin-4-ylmethyl)ureido)benzamide]"
6,100 to 2000,CN(C)c1cccc(NC(=O)c2ccc(NC(=O)NCc3ccncc3)cc2)c1 [N-(3-(dimethylamino)phenyl)-4-(3-(pyridin-4-ylmethyl)ureido)benzamide]
7,100 to 2000,N#Cc1cccc(CNS(=O)(=O)c2ccc(NC(=O)NCc3ccncc3)cc2)c1 [N-(3-Cyano-benzyl)-4-(3-pyridin-4-ylmethyl-ureido)-benzenesulfonamide]
8,100 to 2000,COc1cccc(NS(=O)(=O)c2ccc(NC(=O)NCc3ccncc3)cc2)c1 [N-(3-Methoxy-phenyl)-4-(3-pyridin-4-ylmethyl-ureido)-benzenesulfonamide]
9,100 to 2000,COCCCNS(=O)(=O)c1ccc(NC(=O)NCc2ccncc2)cc1 [N-(3-Methoxy-propyl)-4-(3-pyridin-4-ylmethyl-ureido)-benzenesulfonamide]
10,> 20000,O=C(NCc1ccncc1)Nc1ccc(C(=O)NCc2cccc(F)c2)cc1 [N-(3-fluorobenzyl)-4-(3-(pyridin-4-ylmethyl)ureido)benzamide]
11,100 to 2000,O=C(NCc1ccncc1)Nc1ccc(S(=O)(=O)NCc2cccc(F)c2)cc1 [N-(3-fluorobenzyl)-4-(3-(pyridin-4-ylmethyl)ureido)benzenesulfonamide]
12,> 20000,COc1cccc(CNC(=O)c2ccc(NC(=O)NCc3ccncc3)cc2)c1 [N-(3-methoxybenzyl)-4-(3-(pyridin-4-ylmethyl)ureido)benzamide]
13,2000 to 5000,Cc1cc(NC(=O)c2ccc(NC(=O)NCc3ccncc3)cc2)on1 [N-(3-methylisoxazol-5-yl)-4-(3-(pyridin-4-ylmethyl)ureido)benzamide]
14,< 100,CN(C)Cc1ccc(CNS(=O)(=O)c2ccc(NC(=O)NCc3ccncc3)cc2)cc1 [N-(4-((dimethylamino)methyl)benzyl)-4-(3-(pyridin-4-ylmethyl)ureido)benzenesulfonamide]
15,100 to 2000,CN(C)c1ccc(NC(=O)c2ccc(NC(=O)NCc3ccncc3)cc2)cc1 [N-(4-(dimethylamino)phenyl)-4-(3-(pyridin-4-ylmethyl)ureido)benzamide]
16,100 to 2000,CN(C)c1ccc(CNS(=O)(=O)c2ccc(NC(=O)NCc3ccncc3)cc2)cc1 [N-(4-Dimethylamino-benzyl)-4-(3-pyridin-4-ylmethyl-ureido)-benzenesulfonamide]
17,100 to 2000,CS(=O)(=O)c1ccc(CNS(=O)(=O)c2ccc(NC(=O)NCc3ccncc3)cc2)cc1 [N-(4-Methanesulfonyl-benzyl)-4-(3-pyridin-4-ylmethyl-ureido)-benzenesulfonamide]
18,100 to 2000,COc1ccc(NS(=O)(=O)c2ccc(NC(=O)NCc3ccncc3)cc2)cc1 [N-(4-Methoxy-phenyl)-4-(3-pyridin-4-ylmethyl-ureido)-benzenesulfonamide]
19,100 to 2000,COCc1ccc(CNS(=O)(=O)c2ccc(NC(=O)NCc3ccncc3)cc2)cc1 [N-(4-Methoxymethyl-benzyl)-4-(3-pyridin-4-ylmethyl-ureido)-benzenesulfonamide]
20,> 20000,O=C(NCc1ccncc1)Nc1ccc(C(=O)NCc2ccc(Cl)cc2)cc1 [N-(4-chlorobenzyl)-4-(3-(pyridin-4-ylmethyl)ureido)benzamide]
21,100 to 2000,N#Cc1ccc(CNS(=O)(=O)c2ccc(NC(=O)NCc3ccncc3)cc2)cc1 [N-(4-cyanobenzyl)-4-(3-(pyridin-4-ylmethyl)ureido)benzenesulfonamide]
22,100 to 2000,N#Cc1ccc(NC(=O)c2ccc(NC(=O)NCc3ccncc3)cc2)cc1 [N-(4-cyanophenyl)-4-(3-(pyridin-4-ylmethyl)ureido)benzamide]
23,100 to 2000,CCOc1ccc(NC(=O)c2ccc(NC(=O)NCc3ccncc3)cc2)cc1 [N-(4-ethoxyphenyl)-4-(3-(pyridin-4-ylmethyl)ureido)benzamide]
24,100 to 2000,O=C(NCc1ccncc1)Nc1ccc(S(=O)(=O)NCc2ccc(F)cc2)cc1 [N-(4-fluorobenzyl)-4-(3-(pyridin-4-ylmethyl)ureido)benzenesulfonamide]

# Further lines, the molecule ahead of its results:
row,SMILES,EC50 [nM]
1,COCCNC(=O)c1ccc(NC(=O)NCc2ccncc2)cc1 [N-(2-methoxyethyl)-4-(3-(pyridin-4-ylmethyl)ureido)benzamide],2000 to 5000
2,COc1ccccc1NC(=O)c1ccc(NC(=O)NCc2ccncc2)cc1 [N-(2-methoxyphenyl)-4-(3-(pyridin-4-ylmethyl)ureido)benzamide],100 to 2000
3,O=C(NCc1ccncc1)Nc1ccc(S(=O)(=O)NCc2cccc(Cl)c2)cc1 [N-(3-Chloro-benzyl)-4-(3-pyridin-4-ylmethyl-ureido)-benzenesulfonamide],100 to 2000
4,CN(C)c1cccc(CNS(=O)(=O)c2ccc(NC(=O)NCc3ccncc3)cc2)c1 [N-(3-Dimethylamino-benzyl)-4-(3-pyridin-4-ylmethyl-ureido)-benzenesulfonamide],100 to 2000
5,COc1cccc(CNS(=O)(=O)c2ccc(NC(=O)NCc3ccncc3)cc2)c1 [N-(3-Methoxy-benzyl)-4-(3-pyridin-4-ylmethyl-ureido)-benzenesulfonamide],100 to 2000
6,Cc1cccc(CNS(=O)(=O)c2ccc(NC(=O)NCc3ccncc3)cc2)c1 [N-(3-Methyl-benzyl)-4-(3-pyridin-4-ylmethyl-ureido)-benzenesulfonamide],100 to 2000
7,O=C(NCc1ccncc1)Nc1ccc(C(=O)NCc2cccc(Cl)c2)cc1 [N-(3-chlorobenzyl)-4-(3-(pyridin-4-ylmethyl)ureido)benzamide],> 20000
8,O=C(NCc1ccncc1)Nc1ccc(C(=O)Nc2cccc(Cl)c2)cc1 [N-(3-chlorophenyl)-4-(3-(pyridin-4-ylmethyl)ureido)benzamide],100 to 2000
9,CCOCCCNC(=O)c1ccc(NC(=O)NCc2ccncc2)cc1 [N-(3-ethoxypropyl)-4-(3-(pyridin-4-ylmethyl)ureido)benzamide],100 to 2000
10,O=C(NCc1ccncc1)Nc1ccc(C(=O)Nc2cccc(F)c2)cc1 [N-(3-fluorophenyl)-4-(3-(pyridin-4-ylmethyl)ureido)benzamide],100 to 2000
11,COc1cccc(NC(=O)c2ccc(NC(=O)NCc3ccncc3)cc2)c1 [N-(3-methoxyphenyl)-4-(3-(pyridin-4-ylmethyl)ureido)benzamide],100 to 2000
12,Cc1cccc(CNC(=O)c2ccc(NC(=O)NCc3ccncc3)cc2)c1 [N-(3-methylbenzyl)-4-(3-(pyridin-4-ylmethyl)ureido)benzamide],> 20000
13,"Cc1nc(NS(=O)(=O)c2ccc(NC(=O)NCc3ccncc3)cc2)oc1C [N-(4,5-Dimethyl-oxazol-2-yl)-4-(3-pyridin-4-ylmethyl-ureido)-benzenesulfonamide]",> 20000
14,COCc1ccc(NC(=O)c2ccc(NC(=O)NCc3ccncc3)cc2)cc1 [N-(4-(methoxymethyl)phenyl)-4-(3-(pyridin-4-ylmethyl)ureido)benzamide],> 20000
15,Cc1ccnc(NS(=O)(=O)c2ccc(NC(=O)NCc3ccncc3)cc2)n1 [N-(4-Methyl-pyrimidin-2-yl)-4-(3-pyridin-4-ylmethyl-ureido)-benzenesulfonamide],100 to 2000
16,O=C(NCc1ccncc1)Nc1ccc(S(=O)(=O)NCc2ccc(Cl)cc2)cc1 [N-(4-chlorobenzyl)-4-(3-(pyridin-4-ylmethyl)ureido)benzenesulfonamide],100 to 2000
17,O=C(NCc1ccncc1)Nc1ccc(C(=O)Nc2ccc(Cl)cc2)cc1 [N-(4-chlorophenyl)-4-(3-(pyridin-4-ylmethyl)ureido)benzamide],100 to 2000
18,O=C(NCc1ccncc1)Nc1ccc(C(=O)NCc2ccc(F)cc2)cc1 [N-(4-fluorobenzyl)-4-(3-(pyridin-4-ylmethyl)ureido)benzamide],> 20000

# Same assay, conditions: Table B-4; NAMPT activation, NMN formation
row,SMILES,EC50 [nM]
1,O=C(NCc1cn[nH]c1)Nc1ccc(S(=O)(=O)NCc2cccc(F)c2)cc1 [N-(3-Fluoro-benzyl)-4-[3-(1H-pyrazol-4-ylmethyl)-ureido]-benzenesulfonamide],100 to 2000
2,Cc1ccc(CNS(=O)(=O)c2ccc(NC(=O)NCc3cn[nH]c3)cc2)cc1 [N-(4-Methyl-benzyl)-4-[3-(1H-pyrazol-4-ylmethyl)-ureido]-benzenesulfonamide],100 to 2000
